# Assay results published in US6528514B1, “IgE antibody production inhibitors and autoimmune diseases inhibitors” (Welfide Corporation, priority 1998, dated 2003).
# How the values were obtained:
# [1] = target: T1, human heart chymase (Homo sapiens, UniProt P23946); test: human heart chymase inhibitory activity test (amidase inhibitory activity); format: biochemical; details: 5 nM chymase; substrate succinyl-alanyl-alanyl-prolyl-phenylalanine-p-nitroanilide; pH 7.5
# T1 sequence (P23946 22-247): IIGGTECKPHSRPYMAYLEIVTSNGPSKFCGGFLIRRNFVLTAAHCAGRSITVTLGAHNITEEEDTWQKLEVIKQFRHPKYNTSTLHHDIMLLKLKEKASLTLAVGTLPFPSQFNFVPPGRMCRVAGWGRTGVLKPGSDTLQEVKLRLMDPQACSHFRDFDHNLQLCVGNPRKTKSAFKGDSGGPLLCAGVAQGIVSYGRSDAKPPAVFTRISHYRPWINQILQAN
# Experimental: The human heart chymase-inhibitory activity of the obtained Compound 1 was assayed in terms of amidase inhibitory activity of human heart chymase and the efficacy of the compound was evaluated as follows.
# The inhibitory activity was determined from the change in residual activity fraction of 5 nM chymase using a concentration series (<×1,<×10,<×100 equivalents) of Compound 1 in the presence of the synthetic substrate succinyl-alanyl-alanyl-prolyl-phenylalanine-p-nitroanilide at a final concentration of 2.5 mmol. Analysis of inhibitory potency was made by the least square regression of the Easson-Stedman plot utilizing bimolecular equilibrium reaction linearization (Proc. Roy. Soc. B., 121, 141, 1936). The apparent inhibition constant (Kiapp) obtained by this analysis and the inhibition constant (Ki) calculated from the final concentration of the substrate in the reaction mixture and the Km value measured separately were used to evaluate the inhibitory activity. For determination of the initial velocity of the enzymatic reaction, the amount of p-nitroaniline produced by hydrolysis of the substrate was spectrometrically estimated from the increase in the absorbance at 405 nm after subtraction of the absorbance at 650 nm. […]
# From the absorbance reading immediately after addition of the enzyme, the increase in absorbance was recorded at exactly equal time-intervals as a progressive curve.
# [2] = tested on: IgE antibody; test: Determination of serum IgE antibody titer in HgCl2-administered BN rats (ELISA); format: in vivo, rat; details: for inhibition at 30 mg/kg/day: Rattus norvegicus, po, read-out: Inhibition rate; for Serum IgE antibody titer / inhibition of IgE antibody titer increased by HgCl2 (in words): male BN rats; for Serum IgE antibody titer: HgCl2 1 mg/mL/kg s.c., compound 30 mg/kg/day orally for 6 days, serum on day 7, *p < 0.05
# Experimental: HgCl2, 1 mg/mL/kg, was administered to male BN rats (8 animals per group) subcutaneously at the back (HgCl2 group). Separately, to male BN rats (8 animals per group) similarly administered with HgCl2, Compounds 1˜4 were administered orally in a daily dose of 30 mg/kg for 6 consecutive days beginning the HgCl2 administration day (Compound 1 administration group, Compound 2 administration group, Compound 3 administration group, and Compound 4 administration group, respectively). Here, Compound 3 is 2-[5-amino-2-(3-methoxyphenyl)-6-oxo-1,6-dihydro-1-pyrimidinyl]-N-[1-[(benzoxazol-2-yl)carbonyl]-2-phenylethyl]acetamide and Compound 4 is 2-[5-amino-2-(3-methoxyphenyl)-6-oxo-1,6-dihydro-1-pyrimidin-yl]-N-[1-[[5-(methoxycarbonyl)benzoxazol-2-yl]carbonyl]-2-phenylethyl]acetamide. On day 7 following HgCl2 administration, the animals were sacrificed with CO2 gas, thoracotomized, and the cardiac blood was collected and centrifuged to recover the serum. The serum samples were stored at −20° C. and the IgE antibody titer was determined by the following procedure.
# Anti-rat IgE monoclonal antibody [MCARE-01] [manufactured by Biochemical Industry Co., 01404] was diluted to 5 μg/mL with 0.02% NaN3/PBS and an ELISA plate was coated with 50 μL of the solution at 4° C. overnight. After each well was washed, blocking was performed with 3% skim milk/TBS at room temperature for at least 1 hour. After another washing, 50 μL of the test sample diluted 200-fold with 1% BSA/TBS was added to each well, followed by 2 hours of incubation at room temperature. Each well was washed and 50 μL of ALP-labeled anti-rat κ & λ-chain monoclonal antibody (Sigma, lot 113H4804) diluted 5000-fold with 1% BSA/TBS was added. The plate was incubated at room temperature for 2 hours. Each well was washed again, and 50 μL/well of p-nitrophenyl phosphate (in 0.1 M diethanolamine, 1 mg/mL, pH 9.8) was added as the substrate solution. After color development, the reaction was stopped with an equal amount of 0.5 M NaOH and the OD was measured at the wavelength of 405 nm. As the standard rat IgE, Chemicon's rat IgE was used.
# [3] = tested on: male BN rats; test: Arthritis assay in HgCl2-administered BN rats (hindpaw volume, severity score); format: in vivo, rat; details: HgCl2 s.c. every other day day 1 to day 10, Compound 1 orally every day
# Experimental: HgCl2, 1 mg/mL/kg, was administered to male BN rats (8 animals per group) subcutaneously at the back every other day from day 1 to day 10, for a total of 5 times (HgCl2 administration group). Separately, in parallel with the administration of HgCl2, Compound 1 was administered orally in a daily dose of […] every day (Compound 1 administration group). In the normal group, PBS in lieu of HgCl2 was administered. On day 1, day 12, day 14, day 16 and day 18, the right and left hindpaw volumes were measured and the severity of arthritis was scored.
# With regard to right and left hindpaw volumes, the left hindpaw and right hindpaw of each rat were respectively immersed in water and the increase in volume of the water was measured to calculate the rate of increase (%).
# “LEFT” represents the left hindpaw volume and “RIGHT” represents the right hindpaw volume. The ordinate represents the rate of volume increase (%). The abscissa represents the number of days from the first day of testing to the measurement day. […]
# The arthritis severity was scored for each limb according to the following criteria and the total of scores for the four limbs (maximum score=16) and the average of the scores for 8 animals per group were calculated. […]
# [4] = tested on: anti-ssDNA antibody; test: Assay of anti-ssDNA antibody in serum of HgCl2-administered BN rats; format: in vivo, rat; details: male BN rats, Compound 1 30 mg/kg orally every day, serum day 12, 14, 16
# Experimental: (§1) HgCl2, 1 mg/mL/kg, was administered to male BN rats (8 animals per group) subcutaneously at the back every other day from day 1 to day 10, for a total of 5 times (HgCl2 administration group). Separately, in parallel with the administration of HgCl2 in the same manner as above, Compound 1 was administered orally in a daily dose of 30 mg/kg every day (Compound 1 administration group). In the normal group, PBS was administered. On day 12, day 14 and day 16, the blood was drawn from the tail vein and centrifuged to separate the serum. (2-1) Assay of anti-ssDNA antibody
# A 96-well plate was coated with 50 μL/well of ε-poly-L-lysine having a molecular weight of 2000˜4000 (Wako Pure Chemical Industries, ECN 6644, 25 μg/mL in PBS) at room temperature for 3 hours. […]
# After washing, 50 μL of the test sample diluted 50-fold with 1% BSA/PBS was added to each well, and the plate was incubated at room temperature for 2 hours. […] Amount of bound antibody was measured as the change of absorbance at 490 nm to 650 nm with the combination of peroxidase-labeled anti-rat IgE(Fc) monoclonal antibody and o-phenylendiamine (1mg/mL) and H2O2 (as the control, the OD on day 1 was used). The amount of anti-ssDNA antibody was calculated as the difference (ΔOD) from that of the background.
# The ordinate represents the difference in absorbance (ΔOD) . […]
# [5] = tested on: anti-type II collagen antibody; test: Assay of anti-type II collagen antibody in serum of HgCl2-administered BN rats; format: in vivo, rat; details: male BN rats, Compound 1 30 mg/kg orally every day, serum day 12, 14, 16
# Experimental: as §1
# Type II collagen (Collagen Technology Forum, 64-50823) was diluted to 50 μg/mL with 0.02% NaN3/PBS and an ELISA plate was coated with 50 μL/well at 4° C. overnight. After washing, 50 μL of the test sample diluted 50-fold with 1% BSA/PBS was added to the each well and the plate was incubated at room temperature for 2 hours. As the background, wells not supplied with the test sample were provided. Amount of bound antibody was measured as the change of absorbance at 490 nm to 650 nm with the combination of peroxidase-labeled anti-rat IgE(Fc) monoclonal antibody and o-phenylendiamine (1 mg/mL) and H2O2 (as the control, the OD on day 1 was used). The amount of anti-type II collagen antibody was calculated as the difference (ΔOD) from that of the background.
# The ordinate represents the difference in absorbance (ΔOD). […]
# [6] = inhibition of serum IgE antibody titer vs HgCl2 group, 30 mg/kg/day orally for 6 days, day 7
SMILES,Ki [1] [nM],"inhibition at 30 mg/kg/day [2, 6] [%]",Serum IgE antibody titer [2],inhibition of IgE antibody titer increased by HgCl2 (in words) ([2]; 30 mg/kg/day orally for 6 days),rate of increase in left and right hindpaw volumes (FIG. 1) ([3]; measured up to day 18),"arthritis severity score (FIG. 2) ([3]; total of four limbs, maximum 16)","amount of anti-ssDNA antibody (ΔOD, FIG. 3) [4]","anti-type II collagen antibody titer (ΔOD, FIG. 4) [5]","Inhibition rate [2, 6] [%]"
"COC(=O)c1ccc2oc(C(=O)C(Cc3ccccc3)NC(=O)Cn3c(-c4ccc(F)cc4)ncc(N)c3=O)nc2c1 (centres unmarked) [Compound 1, 2-[5-amino-2-(4-fluorophenyl)-6-oxo-1,6-dihydro-1-pyrimidinyl]-N-[1-[[5-(methoxycarbonyl)benzoxazol-2-yl]carbonyl]-2-phenylethyl]acetamide]",23,27.8,62.24 ± 5.08*,significantly inhibited,significantly suppressed,significantly reduced,significantly reduced,reduced,–
"Nc1cnc(-c2cccc(Cl)c2)n(CC(=O)NC(Cc2ccccc2)C(=O)C(F)(F)C(=O)NCc2ccccc2)c1=O (centres unmarked) [Compound 2, 2-[5-amino-2-(3-chlorophenyl)-1 6-dihydro-6-oxo-1-pyrimidinyl]-N-[1-benzyl-3-[N-(benzyl)carbamoyl]-3,3-difluoro-2-oxopropyl]acetamide]",–,–,67 ± 7.57 µg/mL,tendency to inhibit,–,–,–,–,22.3
"COc1cccc(-c2ncc(N)c(=O)n2CC(=O)NC(Cc2ccccc2)C(=O)c2nc3ccccc3o2)c1 (centres unmarked) [Compound 3, 2-[5-amino-2-(3-methoxyphenyl)-6-oxo-1,6-dihydro-1-pyrimidinyl]-N-[1-[(benzoxazol-2-yl)carbonyl]-2-phenylethyl]acetamide]",–,24.3,65.25 ± 6.71*,significantly inhibited,–,–,–,–,–
"COC(=O)c1ccc2oc(C(=O)C(Cc3ccccc3)NC(=O)Cn3c(-c4cccc(OC)c4)ncc(N)c3=O)nc2c1 (centres unmarked) [Compound 4, 2-[5-amino-2-(3-methoxyphenyl)-6-oxo-1,6-dihydro-1-pyrimidin-yl]-N-[1-[[5-(methoxycarbonyl)benzoxazol-2-yl]carbonyl]-2-phenylethyl]acetamide]",–,23.4,66.10 ± 8.46*,significantly inhibited,–,–,–,–,–
